Data reported in paper PMC4640093, “Lipophilic prodrugs of nucleoside triphosphates as biochemical probes and potential antivirals” (Nature Communications, 2015).

Tests used:
[1] = Enzyme-catalysed hydrolysis in CEM cell extracts; settings: for t1/2(1) CEM: human CEM cell extract, 37 °C
Experimental: The hydrolysis mixtures were analysed by means of analytical RP-18-HPLC.
A volume of 10 μl of the appropriate 50 mM DMSO-d6 stock solution was diluted to 6.0 mM hydrolysis solution by addition of 73.3 μl DMSO-d6. Seven different samples including 10 μl water and 10 μl hydrolysis solution were prepared. The reaction was started by addition of 50 μl human CEM cell extract and the mixture was incubated at 37 °C for different time periods of hydrolysis. The work-up depended on the particular compound: (a) for 3a–f,l,m,p and 4a,e the reactions were stopped by addition of 150 μl MeOH. The solution was kept on ice for 5 min followed by centrifugation for 5 min (13,000 r.p.m.). The supernatants were filtered (Chromafil RC-20/15 MS, 0.2 μm) and stored in liquid nitrogen. (b) For 3g–i,k,n and 4j, the samples were directly frozen in liquid nitrogen. The solution was defrosted followed by ultrasonication for 10 min. After centrifugation for 5 min the supernatants were filtered (Chromafil AO-20/3, 0.2 μm) and stored at −196 °C. (c) For 3j the mixture was diluted with 70 μl THF (HPLC grade) and frozen in liquid nitrogen followed by defrosting, ultrasonication, centrifugation, filtration and stored as described for (b). Samples were defrosted and 50–80 μl were subjected to HPLC analysis.
Human CD4^+ T-lymphocyte CEM cells were grown in RPMI-1640-based cell culture medium to a final density of ∼3·10^6 cells ml^−1. Then, cells were centrifuged for 10 min at 1,250 r.p.m. at 4 °C, washed twice with cold PBS and the pellet was resuspended at 10^8 cells ml^−1 and sonicated (Hielscher Ultrasound Techn., 100% amplitude, three·times for 10 s) to destroy cell integrity. The resulting cell suspension was then centrifuged at 10,000 r.p.m. to remove cell debris, and the supernatant divided into aliquots before being frozen at −80 °C and used.

[2] = test system: pig liver esterase (PLE); test: Enzymatic hydrolysis with pig liver esterase (PLE) in PBS; format: in vitro ADME; settings: PLE in PBS pH 7.3, 37 °C; for t1/2(1) PLE: removal of first masking unit (half-lives of 3); for t1/2(2) PLE: second hydrolysis step, half-lives of intermediate 4
Experimental: Furthermore, 140 μl of the 6.0 mM solution was diluted with 105 μl DMSO-d6 and 700 μl 50 mM PBS buffer. The reaction was started by addition of 52.5 μl of PLE in PBS buffer (3 mg ml^−1) and the mixture was incubated at 37 °C in a thermomixer. At different times, aliquots (125 μl) were taken and treated as follows: (a) for 3a–g,l,m and 4a,e the reaction was stopped by addition to 132.5 μl MeOH. […] (b) For 3h,i,k,n and 4j, the sample was directly frozen in liquid nitrogen.

[3] = test system: HIV-2(ROD); test: Anti-HIV activity assay, HIV-2 in TK-deficient CEM/TK− cells; format: cell-based; settings: thymidine kinase-deficient CEM/TK− cells; mean±s.d., n=2–3
Experimental: (§1) Inhibition of HIV-1(IIIB)- and HIV-2(ROD)-induced cytopathicity in wild-type CEM/0 and TK-deficient CEM/TK^− cell cultures was measured in microtitre 96-well plates containing ∼3 × 10^5 CEM cells ml^−1 infected with 100 CCID50 of HIV per millilitre and containing appropriate dilutions of the test compounds. After 4−5 days of incubation at 37 °C in a CO2-controlled humidified atmosphere, CEM giant (syncytium) cell formation was examined microscopically. The EC50 (50% effective concentration) was defined as the compound concentration required to inhibit HIV-induced giant cell formation by 50%.

[4] = test system: HIV-2(ROD); test: Anti-HIV activity assay, HIV-2 in wild-type CEM/0 cells; format: cell-based; settings: wild-type CEM cells, HIV-induced giant cell formation; mean±s.d., n=2–3; read-out: EC50 CEM HIV-2
Experimental: as §1

[5] = test system: HIV-1(IIIB); test: Anti-HIV activity assay, HIV-1 in wild-type CEM/0 cells; format: cell-based; settings: HIV-induced giant cell formation, mean±s.d., n=2–3
Experimental: as §1

[6] = test system: CD4+ T-cell (CEM); test: Cytotoxicity: inhibition of CEM cell proliferation; format: cell-based, human; settings: 50% cytostatic concentration, mean±s.d., n=2–3
[7] = Chemical hydrolysis in PBS, pH 7.3; format: physicochemical; settings: PBS pH 7.3, 37 °C; for t1/2(1) PBS, pH=7.3: removal of first masking unit (half-lives of 3); for t1/2(2) PBS, pH=7.3: second hydrolysis step, half-lives of intermediate 4 to give d4TTP 19
Experimental: Stock solutions (50 mM in DMSO-d6) of the appropriate compounds were prepared. After dilution of 11 μl with 100 μl Millipore water and 189 μl DMSO-d6 to 1.9 mM hydrolysis solutions the reaction was started by the addition of 300 μl PBS (50 mM, pH 7.3). The solution was incubated at 37 °C in a thermomixer. An initial aliquot (25 μl) was taken directly and analysed by analytical HPLC at 265–266 nm. Further aliquots were taken for monitoring the kinetic hydrolysis. The exponential decay curves (pseudo-first order) based on absolute integral values were calculated with commercially available software (OriginPro 9.0G) and yielded the half-lives t1/2(1) and t1/2(2) of the prodrugs via one determination.

Row | SMILES | t1/2(1) CEM [1] [h] | t1/2(1) PLE [2] [h] | t1/2(2) PLE [2] [h] | EC50 [3] [nM] | EC50 [4] [nM] | EC50 [5] [nM] | t1/2(1) PBS, pH=7.3 [7] [h] | t1/2(2) PBS, pH=7.3 [7] [h] | CC50 [6] [nM] | t1/2 in cell extracts ([1]; degradation of the nucleotide in CEM cell extracts) [h]
1 | CC(=O)Oc1ccc(COP(=O)(OCc2ccc(OC(C)=O)cc2)OP(=O)(O)OP(=O)(O)OC[C@@H]2C=C[C@H](n3cc(C)c(=O)[nH]c3=O)O2)cc1 [3a, γ-Bis-(4-acetyloxybenzyl)-d4TTP] | 0.050 | 1.9 | 71 | > 10000 | 720 ± 160 | 430 ± 250 | 18 | 75 | 63000 ± 2000 | 
2 | CCC(=O)Oc1ccc(COP(=O)(OCc2ccc(OC(=O)CC)cc2)OP(=O)(O)OP(=O)(O)OC[C@@H]2C=C[C@H](n3cc(C)c(=O)[nH]c3=O)O2)cc1 [3b, γ-Bis-(4-propanoyloxybenzyl)-d4TTP] | 0.12 | 0.42 | 33 | > 10000 | 1160 ± 150 | 460 ± 210 | 17 | 150 | 57000 ± 6000 | 
3 | COC(=O)Oc1ccc(COP(=O)(OCc2ccc(OC(=O)OC)cc2)OP(=O)(O)OP(=O)(O)OC[C@@H]2C=C[C@H](n3cc(C)c(=O)[nH]c3=O)O2)cc1 [3l, γ-Bis-(4-methyloxycarbonyloxybenzyl)-d4TTP] | 0.97 | 3.8 | 177 | > 10000 | 920 ± 120 | 400 | 24 | 200 | 16000 ± 1000 | 
4 | CCCCOC(=O)N(C)CCN(C)C(=O)Oc1ccc(COP(=O)(OCc2ccc(OC(=O)N(C)CCN(C)C(=O)OCCCC)cc2)OP(=O)(O)OP(=O)(O)OCC2C=CC(n3cc(C)c(=O)[nH]c3=O)O2)cc1 (stereo not shown) [3o, γ-Bis-(4-(butyl-ethane-1,2-diylbis(methylcarbamate))-oxybenzyl)-d4TTP] |  |  |  |  |  |  | 27 |  |  | 
5 | CCCCCCCCOC(=O)N(C)CCN(C)C(=O)Oc1ccc(COP(=O)(OCc2ccc(OC(=O)N(C)CCN(C)C(=O)OCCCCCCCC)cc2)OP(=O)(O)OP(=O)(O)OCC2C=CC(n3cc(C)c(=O)[nH]c3=O)O2)cc1 (stereo not shown) [3p, γ-Bis-(4-(octyl-ethane-1,2-diylbis(methylcarbamate))-oxybenzyl)-d4TTP] | 5.6 |  |  |  |  |  | 48 |  |  | 
6 | CCCCCCCCCCCCOC(=O)N(C)CCN(C)C(=O)Oc1ccc(COP(=O)(OCc2ccc(OC(=O)N(C)CCN(C)C(=O)OCCCCCCCCCCCC)cc2)OP(=O)(O)OP(=O)(O)OCC2C=CC(n3cc(C)c(=O)[nH]c3=O)O2)cc1 (stereo not shown) [3q, γ-Bis-(4-(dodecyl-ethane-1,2-diylbis(methylcarbamate))-oxybenzyl)-d4TTP] |  |  |  |  |  |  | 48 |  |  | 
7 | CC(=O)Oc1ccc(COP(=O)(O)OP(=O)(O)OP(=O)(O)OC[C@@H]2C=C[C@H](n3cc(C)c(=O)[nH]c3=O)O2)cc1 [4a, γ-Mono-(4-acetyloxybenzyl)-d4TTP] | 0.040 |  | 108 |  |  |  |  | 95 |  | 
8 | CCCCCCCCC(=O)Oc1ccc(COP(=O)(O)OP(=O)(O)OP(=O)(O)OC[C@@H]2C=C[C@H](n3cc(C)c(=O)[nH]c3=O)O2)cc1 [4e, γ-Mono-(4-nonanoyloxybenzyl)-d4TTP] | 1.8 |  | 1.5 |  |  |  |  | 237 |  | 
9 | CCCCCCCCCCCCCCCCCC(=O)Oc1ccc(COP(=O)(O)OP(=O)(O)OP(=O)(O)OC[C@@H]2C=C[C@H](n3cc(C)c(=O)[nH]c3=O)O2)cc1 [4j, γ-Mono-(4-octadecanoyloxybenzyl)-d4TTP] | 4.6 |  | 57 |  |  |  |  | 637 |  | 
10 | Cc1cn([C@H]2C=C[C@@H](COP(=O)(O)OP(=O)(O)OP(=O)(O)O)O2)c(=O)[nH]c1=O [d4TTP 19, reference compound] |  |  |  |  |  |  |  |  |  | 0.63

The next lines start with results.

Row | t1/2(1) CEM [1] [h] | t1/2(1) PLE [2] [h] | t1/2(2) PLE [2] [h] | EC50 [3] [nM] | EC50 [4] [nM] | EC50 [5] [nM] | t1/2(1) PBS, pH=7.3 [7] [h] | t1/2(2) PBS, pH=7.3 [7] [h] | SMILES | CC50 [6] [nM] | t1/2 in cell extracts ([1]; degradation of the nucleotide in CEM cell extracts) [h]
11 | 0.43 | 0.063 | 7.7 | > 10000 | 1050 ± 300 | 400 | 22 | 270 | CCCCC(=O)Oc1ccc(COP(=O)(OCc2ccc(OC(=O)CCCC)cc2)OP(=O)(O)OP(=O)(O)OC[C@@H]2C=C[C@H](n3cc(C)c(=O)[nH]c3=O)O2)cc1 [3c, γ-Bis-(4-pentanoyloxybenzyl)-d4TTP] | 58000 ± 3000 | 
12 | 0.98 | 0.013 | 1.6 | 10000 | 940 ± 160 | 360 ± 60 | 26 | 350 | CCCCCCC(=O)Oc1ccc(COP(=O)(OCc2ccc(OC(=O)CCCCCC)cc2)OP(=O)(O)OP(=O)(O)OC[C@@H]2C=C[C@H](n3cc(C)c(=O)[nH]c3=O)O2)cc1 [3d, γ-Bis-(4-heptanoyloxybenzyl)-d4TTP] | 74000 ± 2000 | 
13 | 2.8 | 0.082 | 3.0 | 500 ± 140 | 330 ± 30 | 250 ± 70 | 44 | 350 | CCCCCCCCCC(=O)Oc1ccc(COP(=O)(OCc2ccc(OC(=O)CCCCCCCCC)cc2)OP(=O)(O)OP(=O)(O)OC[C@@H]2C=C[C@H](n3cc(C)c(=O)[nH]c3=O)O2)cc1 [3f, γ-Bis-(4-decanoyloxybenzyl)-d4TTP] | 34000 ± 5000 | 
14 | 2.2 | 0.95 | 8.3 | 720 ± 160 | 270 ± 60 | 210 ± 10 | 68 | 410 | CCCCCCCCCCCC(=O)Oc1ccc(COP(=O)(OCc2ccc(OC(=O)CCCCCCCCCCC)cc2)OP(=O)(O)OP(=O)(O)OC[C@@H]2C=C[C@H](n3cc(C)c(=O)[nH]c3=O)O2)cc1 [3g, γ-Bis-(4-dodecanoyloxybenzyl)-d4TTP] | 26000 | 
15 | 4.6 | 30 |  | 1630 ± 520 | 1100 ± 230 | 500 ± 140 | 90 | 355 | CCCCCCCCCCCCCC(=O)Oc1ccc(COP(=O)(OCc2ccc(OC(=O)CCCCCCCCCCCCC)cc2)OP(=O)(O)OP(=O)(O)OC[C@@H]2C=C[C@H](n3cc(C)c(=O)[nH]c3=O)O2)cc1 [3h, γ-Bis-(4-tetradecanoyloxybenzyl)-d4TTP] | 28000 ± 7000 | 
16 | 5.3 | 33 |  | 720 ± 160 | 660 ± 80 | 620 ± 300 | 73 | 462 | CCCCCCCCCCCCCCCC(=O)Oc1ccc(COP(=O)(OCc2ccc(OC(=O)CCCCCCCCCCCCCCC)cc2)OP(=O)(O)OP(=O)(O)OC[C@@H]2C=C[C@H](n3cc(C)c(=O)[nH]c3=O)O2)cc1 [3i, γ-Bis-(4-hexadecanoyloxybenzyl)-d4TTP] | 61000 ± 3000 | 
17 | 13 | 37 |  | 280 ± 40 | 310 | 170 | 50 | 583 | CCCCCCCCCCCCCCCCCC(=O)Oc1ccc(COP(=O)(OCc2ccc(OC(=O)CCCCCCCCCCCCCCCCC)cc2)OP(=O)(O)OP(=O)(O)OC[C@@H]2C=C[C@H](n3cc(C)c(=O)[nH]c3=O)O2)cc1 [3j, γ-Bis-(4-octadecanoyloxybenzyl)-d4TTP] | 29000 ± 9000 | 
18 | 4.3 | 42 |  | 930 ± 470 | 470 ± 100 | 300 ± 10 | 27 | 92 | CCCCCCCC/C=C\CCCCCCCC(=O)Oc1ccc(COP(=O)(OCc2ccc(OC(=O)CCCCCCC/C=C\CCCCCCCC)cc2)OP(=O)(O)OP(=O)(O)OC[C@@H]2C=C[C@H](n3cc(C)c(=O)[nH]c3=O)O2)cc1 [3k, γ-Bis(4-(Z)-octadec-9-enoyloxybenzyl)-d4TTP] | 25000 ± 1000 | 
